Test results: US20260085076A1, “CRYSTAL FORM OF AROMATIC HETEROCYCLIC COMPOUND, COMPOSITION THEREOF, PRODUCTION METHOD THEREOF AND USES THEREOF” (Hangzhou Yuhong Pharmaceutical Technology Co., Ltd., priority 2023, published 2026)
≈ marks a conversion by molar mass, not a printed value. Entries after “also recorded” stand apart in the source; their conditions may differ. One block for each compound: values may come before it.

Assays:
[1] = test system: collagen-induced arthritis model in mice; experiment: Collagen-induced arthritis model in mice (mCIA); type: in vivo, DBA/1J mice; details: 50 mg/kg once a day, FIG. 77
Method: 1. Construction of collagen-induced arthritis model in mice (mCIA) Experimental purpose: To test the immunosuppressive activity of YZ001052 in the mCIA model. PF-06651600 was used as a positive control compound.
Complete and incomplete Freund's adjuvants with chicken type II collagen solution were mixed in equal proportions to form emulsions. Except for the blank control group, a mixture of complete Freund's adjuvant and chicken type II collagen solution was injected subcutaneously into the base of the tail and thigh of mice on Day 0. Each mouse was injected subcutaneously with 100 μL at the base of the tail, and injected 50 μL subcutaneously at the base of both thighs (primary immunization). On day 21, mice were injected subcutaneously with 200 μL of a mixture of incomplete Freund's adjuvant and chicken type II collagen as a booster injection (second immunization). Arthritis was considered to occur if the clinical score of at least one limb was >2 points. Paw thickness measurement: Using a vernier caliper to measure the thickness of the left and right hind feet of the mouse and record it, which is the degree of paw swelling. The detection frequency was once every 3 days.

[2] = test system: p-STAT5 under IL-15 stimulation in PBMC (JAK-STAT pathway); experiment: p-STAT5 ELISA in IL-15 stimulated hPBMC cells; type: cell-based, human; details: 45 min compound, 30 min IL-15, ELISA
Method: Based on the mechanism of JAK-STAT pathway, the effect of the compounds on the JAK-STAT pathway were evaluated by using cytokine IL-15 to stimulate hPBMC cells, and using the downstream STAT5 phosphorylation level as the detection index.
1. PBMC cell counting plate: 90 μL PBMC was seeded in a 96-well plate (PBMC cell density 80,000/well).
2. Treatment with test compounds: After cells being seeded, drug treatment was carried out immediately. The drugs to be tested at 5 μL/well (final concentrations 1, 0.5, 0.1, 0.05, 0.01, and 0.005 μM) were incubated at 37° C. for 45 min.
3. Cytokine IL-15 stimulation: The cells were stimulated by 5 μL IL-15, and incubated at 37° C. for 30 min.
4. Protein sample collection: The cells were collected in a centrifuge tube and centrifuged for 5 minutes. The supernatant was discarded and cells were lysed with 1× Cell Extraction Buffer PTR.
5. p-STAT5 detection: Perform detection according to the requirements of the ELISA kit.
Experimental results: IC50 values of compounds on p-STAT5 under IL-15 stimulation in PBMC

SRBC mouse model = experiment: SRBC-induced delayed-type hypersensitivity (DTH) in mice; type: in vivo, Balb/c mice; details: 100 mg/kg gavage once a day, day 0 to day 6, FIG. 76
Method: Drug formulation: The compound was added to 0.5% CMC-Na solution to formulate a drug suspension (dosage is 10 mg/mL).
Induction and administration of delayed-type hypersensitivity (DTH): 30 male Balb/c mice were weighed and randomly divided into 6 groups according to body weight, with 5 mice in each group. The experimental period lasted for 7 days. On day 0, mice were sensitized by subcutaneous injection of sheep red blood cells (SRBC). The mice were performed gavage administration at 100 mg/kg (once a day) from day 0 to day 6. On day 6, the mice were injected SRBC into the right hind foot pad for challenge. Measurements were taken on the 7th day of the experiment, and the experiment was concluded.
Pharmacodynamic detection indicators of disease models: the detection and observation indicators are the redness and swelling degree and thickness of the paw pads of SRBC-induced mice. The thickness of the right paw was measured on day 6 before the SRBC injection challenge as the baseline. The thickness of the right paw was measured again at the end of the experiment, the difference in paw thickness before and after the second injection was calculated.
Statistical analysis: The experimental data were expressed as mean±standard deviation (Mean±SD). All data were statistically analyzed using T-test, with P<0.05 considered statistically significant.

[3] = Stability test of crystal form (long-term, accelerated); type: physicochemical
Method: (§1) Samples of crystal form I produced in Example 15 were taken, which were 15 samples of 50 mg each, and sealed with aluminum foil bags. The crystal stability of the above samples were studied under high temperature (60±2° C.), high humidity (RH90%±5%), long-term test (25° C.±2° C., RH 60%±5%) and accelerated test (40° C.±2° C., RH 75%±5%) conditions. […] The long-term and accelerated 3-month crystal form is stable.

[4] = Solubility at different pH values; type: physicochemical; details: thermodynamic from solid
Method: Excess samples of crystal form I were respectively added to 10 mL of solutions with different pH value. After being shaken for 24 hours by a constant temperature shaker at 32° C. at 100 rpm, the saturated solutions (with undissolved solids at the bottom) were centrifuged and filtered, then determined linear solutions (formulated with reference substances) with different concentrations and saturated solutions with different pH values under the content item. The solubility of the samples at different pH values were calculated using the standard curve as follows, see FIG. 75 for details.

[5] = DVS and isotherm curves, moisture absorption; type: physicochemical
[6] = Crystal competition experiment in anhydrous ethanol; type: physicochemical; details: mixture of forms I-IX suspended in anhydrous ethanol, room temperature, 4 days, XRD
Method: 2 mg each of the aromatic heterocyclic compound of crystal form I, crystal form II, crystal form III, crystal form IV, crystal form V, crystal form VI, crystal form VII, crystal form VIII and crystal form IX was added to 3 ml of anhydrous ethanol to form a suspension.

[7] = Crystal competition experiment in water; type: physicochemical; details: mixture of forms I-IX suspended in water, room temperature, 4 and 7 days, XRD
[8] = Influencing factors test of crystal form (high temperature, high humidity); type: physicochemical
Method: as §1

[9] = Hot stage XRPD, crystal transformation on heating; type: physicochemical

Compound: C=CC(=O)N1C[C@H](Nc2ncnc3[nH]ccc23)CC[C@@H]1C [PF-06651600, reference compound]
- paw swelling ([1]; CIA mice): improved to varying degrees
- arthritis score ([1]; compared with the model group): significantly decreased
- IC50 [2]: 85 nM

Compound: C=C(F)C(=O)N1CCc2c(c(-c3ccnc4[nH]ccc34)nn2C)C1 [YZ001054]
- immunosuppressive effect on SRBC-induced delayed-type hypersensitivity (right paw thickness) (SRBC mouse model): significant immunosuppressive effects

Compound: C=CC(=O)N1CCc2[nH]nc(-c3ccnc4[nH]ccc34)c2C1 [YZ001065]
- immunosuppressive effect on SRBC-induced delayed-type hypersensitivity (right paw thickness) (SRBC mouse model): significant immunosuppressive effects

Compound: C=CC(=O)N1Cc2c(-c3ccnc4[nH]ccc34)nn(C(C)C)c2C[C@H]1C [YZ001085]
- immunosuppressive effect on SRBC-induced delayed-type hypersensitivity (right paw thickness) (SRBC mouse model): significant immunosuppressive effects

- Crystal form test result ([3]; 0 days): form I
- Crystal form test result ([3]; accelerated 40° C. ± 2° C., RH 75% ± 5%, 1 month): form I
- Crystal form test result ([3]; accelerated 40° C. ± 2° C., RH 75% ± 5%, 3 month): stable; also recorded: form I
- Crystal form test result ([3]; long-term 25° C. ± 2° C., RH 60% ± 5%, 1 month): form I
- Crystal form test result ([3]; long-term 25° C. ± 2° C., RH 60% ± 5%, 3 month): stable; also recorded: form I
- solubility at 24 h ([4]; aqueous solution of pH 1.0, simulated gastric fluid, pH 1.0, 32° C.): 14500 µg/mL (≈ 47300 µM)
- solubility at 24 h ([4]; aqueous solution of pH 2.0, simulated gastric fluid, pH 2.0, 32° C.): 2740 µg/mL (≈ 8900 µM)
- solubility at 24 h ([4]; aqueous solution of pH 3.8, aqueous buffer, pH 3.8, 32° C.): 118 µg/mL (≈ 385 µM)
- solubility at 24 h ([4]; aqueous solution of pH 4.5, aqueous buffer, pH 4.5, 32° C.): 68.6 µg/mL (≈ 223 µM)
- solubility at 24 h ([4]; aqueous solution of pH 6.8, aqueous buffer, pH 6.8, 32° C.): 58.9 µg/mL (≈ 192 µM)
- solubility at 24 h ([4]; aqueous solution of pH 8.0, aqueous buffer, pH 8.0, 32° C.): 60.8 µg/mL (≈ 198 µM)
- solubility at 24 h ([4]; water, 32° C.): 53.2 µg/mL (≈ 173 µM)
- moisture absorption rate [5]: about 2.4%
- crystal stability in water [7]: good crystal stability in water
- Crystal form test result ([8]; 0 days): form I
- Crystal form test result ([8]; high humidity RH90% ± 5%, 5 days): form I
- Crystal form test result ([8]; high humidity RH90% ± 5%, 15 days): stable; also recorded: form I
- Crystal form test result ([8]; high temperature 60 ± 2° C., 5 days): form I
- Crystal form test result ([8]; high temperature 60 ± 2° C., 15 days): stable; also recorded: form I
Compound: C=CC(=O)N1CCc2c(c(-c3ccnc4[nH]ccc34)nn2C)C1 [crystal form I, 1-(1-methyl-3-(1H-pyrrolo[2,3-b]pyridin-4-yl)-1,4,6,7-tetrahydro-5H-pyrazolo[4,3-c]pyridin-5-yl)prop-2-en-1-one]
- crystal stability in ethanol [6]: good crystal stability in the presence of ethanol

- moisture absorption rate [5]: about 2.4%
Compound: C=CC(=O)N1CCc2c(c(-c3ccnc4[nH]ccc34)nn2C)C1 [crystal form II, 1-(1-methyl-3-(1H-pyrrolo[2,3-b]pyridin-4-yl)-1,4,6,7-tetrahydro-5H-pyrazolo[4,3-c]pyridin-5-yl)prop-2-en-1-one]
- crystal transformation in hot stage XRPD [9]: transformed into crystal form I at 150 °C

- moisture absorption rate [5]: about 2.2%
- crystal transformation in hot stage XRPD [9]: no crystal transformation at 140 °C
- crystal stability in water [7]: good crystal stability in water
Compound: C=CC(=O)N1CCc2c(c(-c3ccnc4[nH]ccc34)nn2C)C1 [crystal form III, 1-(1-methyl-3-(1H-pyrrolo[2,3-b]pyridin-4-yl)-1,4,6,7-tetrahydro-5H-pyrazolo[4,3-c]pyridin-5-yl)prop-2-en-1-one]

Compound: C=CC(=O)N1CCc2c(c(-c3ccnc4[nH]ccc34)nn2C)C1 [crystal form IX, 1-(1-methyl-3-(1H-pyrrolo[2,3-b]pyridin-4-yl)-1,4,6,7-tetrahydro-5H-pyrazolo[4,3-c]pyridin-5-yl)prop-2-en-1-one]
- crystal transformation in hot stage XRPD [9]: transformed into crystal form I at 155 °C

Compound: C=CC(=O)N1CCc2c(c(-c3ccnc4[nH]ccc34)nn2C)C1 [crystal form VI, 1-(1-methyl-3-(1H-pyrrolo[2,3-b]pyridin-4-yl)-1,4,6,7-tetrahydro-5H-pyrazolo[4,3-c]pyridin-5-yl)prop-2-en-1-one]
- crystal transformation in hot stage XRPD [9]: transformed into crystal form I at 150 °C

- moisture absorption rate [5]: about 1.3%
- crystal transformation in hot stage XRPD [9]: transformed to crystal form I at 150 °C
Compound: C=CC(=O)N1CCc2c(c(-c3ccnc4[nH]ccc34)nn2C)C1 [crystal form VII, 1-(1-methyl-3-(1H-pyrrolo[2,3-b]pyridin-4-yl)-1,4,6,7-tetrahydro-5H-pyrazolo[4,3-c]pyridin-5-yl)prop-2-en-1-one]

- moisture absorption rate [5]: about 1.3%
Compound: C=CC(=O)N1CCc2c(c(-c3ccnc4[nH]ccc34)nn2C)C1 [crystal form VIII, 1-(1-methyl-3-(1H-pyrrolo[2,3-b]pyridin-4-yl)-1,4,6,7-tetrahydro-5H-pyrazolo[4,3-c]pyridin-5-yl)prop-2-en-1-one]
- crystal transformation in hot stage XRPD [9]: most of the crystals were transformed into crystal form I at 150 °C
